# US12503436B2, “Compounds and compositions for treating conditions associated with STING activity” (NOVARTIS PHARMA AG, priority 2021, dated 2025)
# Molecular target: STING (Homo sapiens, UniProt Q86WV6, G230A/H232R/R293Q/R71H)
# Test: STING reporter assay in THP1-Dual KO-IFNAR2 cells (2′3′cGAMP stimulation, luciferase reporter)
# Format: cell-based
# Conditions: 15 μM 2′3′cGAMP stimulation, 24 h, read-out: Pharmaron, THP1_IFNAR2 STING 24 h Luci Normalized: GeoMean EC50
# In short: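 EC50 from secreted luciferase (QUANTI-Luc Plus luminescence of supernatant) after 24 h at 37 °C, 5% CO2. Cells: THP1-Dual KO-IFNAR2, treated with compound (0.0017-100 μM final) plus lipofected 2′3′cGAMP at 15 μM final.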
# Sequence of STING (Q86WV6 whole entry R71H/G230A/H232R/R293Q): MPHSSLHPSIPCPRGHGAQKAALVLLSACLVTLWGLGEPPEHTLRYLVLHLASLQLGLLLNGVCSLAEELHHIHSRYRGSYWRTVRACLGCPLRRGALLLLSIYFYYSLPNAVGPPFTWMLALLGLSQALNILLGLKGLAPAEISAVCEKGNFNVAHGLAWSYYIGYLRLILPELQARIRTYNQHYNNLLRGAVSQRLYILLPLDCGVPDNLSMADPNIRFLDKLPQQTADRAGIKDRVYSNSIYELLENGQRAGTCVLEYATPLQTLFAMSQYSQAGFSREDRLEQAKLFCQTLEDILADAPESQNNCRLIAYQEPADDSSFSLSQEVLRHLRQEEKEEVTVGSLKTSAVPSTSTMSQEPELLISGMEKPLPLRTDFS
row,Compound,EC50 [nM]
1,"CC1(C(=O)Nc2c[nH]c3ccc(O[C@H]4C[C@H](c5ccc(C(F)(F)F)cc5)C4)cc23)CCC1 [Compound 564, 1-methyl-N-(5-(trans-3-(4-(trifluoromethyl)phenyl)cyclobutoxy)-1H-indol-3-yl)cyclobutane-1-carboxamide]",40 to 200
2,"CC(=O)Nc1c[nH]c2ccc(OCCC3CC4(C3)CN(CC(F)(F)F)C4)cc12 [Compound 171, N-(5-(2-(2-(2,2,2-trifluoroethyl)-2-azaspiro[3.3]heptan-6-yl)ethoxy)-1H-indol-3-yl)acetamide]",1000 to 5000
3,"CO[C@H]1C[C@@H](C(=O)Nc2c[nH]c3ccc(O[C@H]4C[C@H](c5ccc(C(F)(F)F)cc5)C4)cc23)C1 [Compound 246, cis-3-methoxy-N-(5-(trans-3-(4-(trifluoromethyl)phenyl)cyclobutoxy)-1H-indol-3-yl)cyclobutane-1-carboxamide]",40 to 200
4,"CO[C@H]1C[C@@H](C(=O)Nc2c[nH]c3ccc(O[C@H]4C[C@@H](c5ccc(C(F)(F)F)cc5)C4)cc23)C1 [Compound 245, cis-3-methoxy-N-(5-(cis-3-(4-(trifluoromethyl)phenyl)cyclobutoxy)-1H-indol-3-yl)cyclobutane-1-carboxamide]",40 to 200
5,"CC(=O)Nc1c[nH]c2ccc(CCCc3ccc(C(F)(F)F)cc3)cc12 [Compound 132, N-(5-(3-(4-(trifluoromethyl)phenyl)propyl)-1H-indol-3-yl)acetamide]",40 to 200
6,"CC(C)(C)CC(=O)Nc1c[nH]c2ccc(O[C@H]3C[C@@H](c4ccc(C(F)(F)F)cc4)C3)cc12 [Compound 157, 3,3-dimethyl-N-(5-(cis-3-(4-(trifluoromethyl)phenyl)cyclobutoxy)-1H-indol-3-yl)butanamide]",40 to 200
7,"N#C[C@H]1C[C@@H]1C(=O)Nc1c[nH]c2ccc(OCCc3ccc(C(F)(F)F)cc3)cc12 [Compound 203, (1S,2S)-2-cyano-N-(5-(4-(trifluoromethyl)phenethoxy)-1H-indol-3-yl)cyclopropane-1-carboxamide]",200 to 1000
8,"O=C(Nc1c[nH]c2ccc(O[C@H]3C[C@H](c4ccc(C(F)(F)F)cc4)C3)cc12)C1CNC1 [Compound 459, N-{5-[(1R, 3R)-3-[4-(trifluoromethyl)phenyl]cyclobutoxy]-1H-indol-3-yl}azetidine-3-carboxamide]",5000 to 100000
9,"CC(=O)Nc1c[nH]c2ccc(OCCc3ccc(C(F)(F)F)nc3)cc12 [Compound 113, N-(5-(2-(6-(trifluoromethyl)pyridin-3-yl)ethoxy)-1H-indol-3-yl)acetamide]",1000 to 5000
10,"CC(=O)Nc1c[nH]c2ccc(CCOc3cnc(C(F)(F)F)nc3)cc12 [Compound 184, N-(5-(2-((2-(trifluoromethyl)pyrimidin-5-yl)oxy)ethyl)-1H-indol-3-yl)acetamide]",5000 to 100000
11,"COCCC(=O)Nc1c[nH]c2ccc(O[C@H]3C[C@H](c4ccc(C(F)(F)F)cc4)C3)cc12 [Compound 241, 3-methoxy-N-(5-((1r,3r)-3-(4-(trifluoromethyl)phenyl)cyclobutoxy)-1H-indol-3-yl)propanamide]",40 to 200
12,"CC1(C(=O)Nc2c[nH]c3ccc(O[C@H]4C[C@@H](c5ccc(C(F)(F)F)cc5)C4)cc23)CCOC1 (stereo partly drawn) [Compound 357, 3-methyl-N-(5-(cis-3-(4-(trifluoromethyl)phenyl)cyclobutoxy)-1H-indol-3-yl)tetrahydrofuran-3-carboxamide]",200 to 1000
13,"O=C(Nc1c[nH]c2ccc(CCOc3ccc(C(F)(F)F)cc3)cc12)C1CCC1 [Compound 145, N-(5-(2-(4-(trifluoromethyl)phenoxy)ethyl)-1H-indol-3-yl)cyclobutanecarboxamide]",200 to 1000
14,"CC1(C(=O)Nc2c[nH]c3ccc(OCc4ccc(C(F)(F)F)cc4)cc23)COC1 [Compound 166, 3-methyl-N-(5-((4-(trifluoromethyl)benzyl)oxy)-1H-indol-3-yl)oxetane-3-carboxamide]",40 to 200
15,"CC(=O)Nc1c[nH]c2ccc(CCOc3ccccc3C3(C)CCN(CC(F)(F)F)CC3)cc12 [Compound 208, N-(5-(2-(2-(4-methyl-1-(2,2,2-trifluoroethyl)piperidin-4-yl)phenoxy)ethyl)-1H-indol-3-yl)acetamide]",1000 to 5000
16,"CC(=O)Nc1c[nH]c2ccc(Oc3ccc(C(F)(F)F)nc3)cc12 [Compound 123, N-(5-((6-(trifluoromethyl)pyridin-3-yl)oxy)-1H-indol-3-yl)acetamide]",5000 to 100000
17,"O=C(Nc1c[nH]c2ccc(OCCc3ccc(C(F)(F)F)cc3)cc12)C1CC1(F)F (stereo not shown) [Compound 181, 2,2-difluoro-N-(5-(4-(trifluoromethyl)phenethoxy)-1H-indol-3-yl)cyclopropane-1-carboxamide]",200 to 1000

# Now from value to compound:
row,EC50 [nM],Compound
1,5000 to 100000,"CC(=O)Nc1c[nH]c2ccc(OCCc3cnn(C(F)F)c3)cc12 [Compound 385, N-(5-(2-(1-(difluoromethyl)-1H-pyrazol-4-yl)ethoxy)-1H-indol-3-yl)acetamide]"
2,1000 to 5000,"CC1(C(=O)Nc2c[nH]c3ccc(OCCc4ccc(C(F)(F)F)nc4)cc23)COC1 [Compound 372, 3-methyl-N-(5-(2-(6-(trifluoromethyl)pyridin-3-yl)ethoxy)-1H-indol-3-yl)oxetane-3-carboxamide]"
3,40 to 200,"CC(=O)Nc1c[nH]c2ccc(OCCc3cnc(N4CCC(F)(F)CC4)c(F)c3)cc12 [Compound 254, N-(5-(2-(6-(4,4-difluoropiperidin-1-yl)-5-fluoropyridin-3-yl)ethoxy)-1H-indol-3-yl)acetamide]"
4,5000 to 100000,"CC(=O)Nc1c[nH]c2c(C)cc(OCCC3CCN(CC(F)(F)F)CC3)cc12 [Compound 281, N-(7-methyl-5-(2-(1-(2,2,2-trifluoroethyl)piperidin-4-yl)ethoxy)-1H-indol-3-yl)acetamide]"
5,1000 to 5000,"CC(=O)Nc1c[nH]c2ccc(CC(C)Oc3ccc(C(F)(F)F)cc3)cc12 (stereo not shown) [Compound 287, N-(5-(2-(4-(trifluoromethyl)phenoxy)propyl)-1H-indol-3-yl)acetamide]"
6,40 to 200,"CC1(C(=O)Nc2c[nH]c3ccc(OCCc4ccc(C(F)(F)F)cc4)cc23)CCOCC1 [Compound 237, 4-methyl-N-(5-(4-(trifluoromethyl)phenethoxy)-1H-indol-3-yl)tetrahydro-2H-pyran-4-carboxamide]"
7,200 to 1000,"C[C@]1(C(=O)Nc2c[nH]c3ccc(OCc4ccc(C(F)(F)F)cc4)cc23)C[C@@H](O)C1 [Compound 414, cis-3-hydroxy-1-methyl-N-(5-((4-(trifluoromethyl)benzyl)oxy)-1H-indol-3-yl)cyclobutane-1-carboxamide]"
8,1000 to 5000,"CC(=O)Nc1c[nH]c2ccc(OCC3(c4ccc(C(F)(F)F)cc4)CC3)cc12 [Compound 289, N-(5-((1-(4-(trifluoromethyl)phenyl)cyclopropyl)methoxy)-1H-indol-3-yl)acetamide]"
9,1000 to 5000,"CC(=O)Nc1c[nH]c2ccc(CCOc3cc(Cl)cc(C#N)c3)cc12 [Compound 476, N-{5-[2-(3-chloro-5-cyanophenoxy)ethyl]-1H-indol-3-yl}acetamide]"
10,200 to 1000,"N#C[C@H]1C[C@@H]1C(=O)Nc1c[nH]c2ccc(OCc3ccc(C(F)(F)F)cc3)cc12 [Compound 585, (1S,2S)-2-cyano-N-(5-((4-(trifluoromethyl)benzyl)oxy)-1H-indol-3-yl)cyclopropane-1-carboxamide]"
11,200 to 1000,"C[C@]1(C(=O)Nc2c[nH]c3ccc(OCc4ccc(C(F)(F)F)cc4)cc23)C[C@@H](CO)C1 [Compound 417, trans-3-(hydroxymethyl)-1-methyl-N-(5-((4-(trifluoromethyl)benzyl)oxy)-1H-indol-3-yl)cyclobutane-1-carboxamide]"
12,200 to 1000,"CC1(C)CC(C(=O)Nc2c[nH]c3ccc(OCc4ccc(C(F)(F)F)cc4)cc23)C1 [Compound 327, 3,3-dimethyl-N-(5-((4-(trifluoromethyl)benzyl)oxy)-1H-indol-3-yl)cyclobutane-1-carboxamide]"
13,40 to 200,"[2H][13C]([2H])([2H])C(=O)Nc1c[nH]c2ccc(CCOc3ccc(C(F)(F)F)cc3)cc12 [Compound 545, N-(5-(2-(4-(trifluoromethyl)phenoxy)ethyl)-1H-indol-3-yl)acetamide-2-13C-2,2,2-d3]"
14,5000 to 100000,"CC(=O)Nc1c[nH]c2ccc(CC3(c4ccc(C(F)(F)F)cc4)CCOC3)cc12 (stereo not shown) [Compound 507, N-(5-((3-(4-(trifluoromethyl)phenyl)tetrahydrofuran-3-yl)methyl)-1H-indol-3-yl)acetamide]"
15,5000 to 100000,"CC(=O)Nc1c[nH]c2ccc(CCOC3CN(CC(F)(F)F)C3)cc12 [Compound 377, N-(5-(2-((1-(2,2,2-trifluoroethyl)azetidin-3-yl)oxy)ethyl)-1H-indol-3-yl)acetamide]"
16,200 to 1000,"CC(=O)Nc1c[nH]c2ccc(CCOc3ccccc3)cc12 [Compound 558, N-(5-(2-phenoxyethyl)-1H-indol-3-yl)acetamide]"
17,200 to 1000,"O=C(Nc1c[nH]c2ccc(OCCc3ccc(C(F)(F)F)cc3)cc12)C1(F)CC1 [Compound 218, 1-fluoro-N-(5-(4-(trifluoromethyl)phenethoxy)-1H-indol-3-yl)cyclopropane-1-carboxamide]"
18,200 to 1000,"C[C@H]1C[C@@H](C(=O)Nc2c[nH]c3ccc(OCc4ccc(C(F)(F)F)cc4)cc23)C1 [Compound 321, cis-3-methyl-N-(5-((4-(trifluoromethyl)benzyl)oxy)-1H-indol-3-yl)cyclobutane-1-carboxamide]"
19,5000 to 100000,"CC(=O)Nc1c[nH]c2ccc(COCC34CC(CN3CC(F)(F)F)C4)cc12 [Compound 492, N-(5-(((2-(2,2,2-trifluoroethyl)-2-azabicyclo[2.1.1]hexan-1-yl)methoxy)methyl)-1H-indol-3-yl)acetamide]"
20,200 to 1000,"O=C(Nc1c[nH]c2ccc(OCc3ccc(C(F)(F)F)cc3)cc12)C1CC1 [Compound 317, N-(5-((4-(trifluoromethyl)benzyl)oxy)-1H-indol-3-yl)cyclopropanecarboxamide]"
